The text below walks through data of publication PMC5830651 (Molecular Oncology, 2018).

Broadly, the IC50 is the concentration needed to halve the response being measured.

What all share (type): biochemical
Assay [1] deals with T1, FLT3 (Homo sapiens, UniProt P36888).
T1 construct: recombinant
T1 sequence (P36888 27-993): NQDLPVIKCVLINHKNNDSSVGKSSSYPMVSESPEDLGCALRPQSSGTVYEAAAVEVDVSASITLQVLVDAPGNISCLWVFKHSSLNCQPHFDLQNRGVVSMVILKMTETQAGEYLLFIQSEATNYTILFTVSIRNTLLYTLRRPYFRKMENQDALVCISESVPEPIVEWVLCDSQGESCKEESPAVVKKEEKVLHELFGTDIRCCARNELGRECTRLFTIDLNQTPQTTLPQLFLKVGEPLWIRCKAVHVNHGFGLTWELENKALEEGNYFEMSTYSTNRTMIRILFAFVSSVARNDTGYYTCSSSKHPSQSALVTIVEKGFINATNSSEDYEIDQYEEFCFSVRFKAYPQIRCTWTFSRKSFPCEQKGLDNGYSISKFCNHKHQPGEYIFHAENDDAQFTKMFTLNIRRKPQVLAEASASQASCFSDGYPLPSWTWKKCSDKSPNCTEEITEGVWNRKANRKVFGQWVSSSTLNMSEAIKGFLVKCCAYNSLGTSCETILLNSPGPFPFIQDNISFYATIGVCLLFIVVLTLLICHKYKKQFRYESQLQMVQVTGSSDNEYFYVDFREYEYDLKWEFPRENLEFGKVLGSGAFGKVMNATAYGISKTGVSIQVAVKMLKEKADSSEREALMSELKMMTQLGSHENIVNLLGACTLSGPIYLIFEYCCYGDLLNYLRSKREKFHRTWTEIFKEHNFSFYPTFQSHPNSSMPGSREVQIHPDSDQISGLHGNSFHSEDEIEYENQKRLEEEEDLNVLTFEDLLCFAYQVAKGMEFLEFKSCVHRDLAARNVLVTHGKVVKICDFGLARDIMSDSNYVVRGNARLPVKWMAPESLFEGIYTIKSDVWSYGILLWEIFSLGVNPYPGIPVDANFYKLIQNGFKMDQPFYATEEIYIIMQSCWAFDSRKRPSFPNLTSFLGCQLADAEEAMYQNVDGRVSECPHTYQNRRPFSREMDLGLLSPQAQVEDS
The experiment in a line: in vitro kinase assay. An excerpt: in vitro kinase assay on FLT3

The target in assay [2] is T2, SRC (Homo sapiens, UniProt P12931).
T2 construct: recombinant
The experiment in a line: in vitro kinase assay. The source says: in vitro kinase assay on SRC

Assay [3] concerns the target T3, ABL (Homo sapiens, UniProt P00519).
T3 construct: gene ABL1; recombinant
The assay is described as follows: in vitro kinase assay. The source says:
in vitro kinase assay on ABL

The target in assay [4] is T4, CDK1/B (CDK1/cyclin B) (Homo sapiens, UniProt P06493).
T4 construct: recombinant human kinase complex; with G2/mitotic-specific cyclin-B1
T4 sequence (P06493 whole entry): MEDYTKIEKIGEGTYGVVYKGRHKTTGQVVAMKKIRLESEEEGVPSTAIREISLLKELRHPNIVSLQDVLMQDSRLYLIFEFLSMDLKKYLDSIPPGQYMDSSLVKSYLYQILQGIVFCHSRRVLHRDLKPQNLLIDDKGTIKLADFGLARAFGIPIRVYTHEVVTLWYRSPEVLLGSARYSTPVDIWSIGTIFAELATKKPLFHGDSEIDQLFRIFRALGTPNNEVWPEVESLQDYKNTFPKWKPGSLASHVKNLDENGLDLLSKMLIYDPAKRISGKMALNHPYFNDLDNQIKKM
T4 sequence (P14635 whole entry partner): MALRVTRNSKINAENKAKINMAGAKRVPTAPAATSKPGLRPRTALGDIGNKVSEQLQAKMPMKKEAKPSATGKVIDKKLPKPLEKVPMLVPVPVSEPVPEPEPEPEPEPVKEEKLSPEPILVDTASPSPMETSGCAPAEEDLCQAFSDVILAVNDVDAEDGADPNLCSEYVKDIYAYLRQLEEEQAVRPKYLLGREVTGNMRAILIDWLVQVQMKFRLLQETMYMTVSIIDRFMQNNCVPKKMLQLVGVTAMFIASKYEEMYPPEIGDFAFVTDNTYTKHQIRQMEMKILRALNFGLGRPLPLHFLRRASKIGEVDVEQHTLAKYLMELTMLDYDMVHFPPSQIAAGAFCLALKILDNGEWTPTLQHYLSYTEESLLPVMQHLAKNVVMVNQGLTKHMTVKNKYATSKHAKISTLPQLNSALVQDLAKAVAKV
The experiment in a line: in vitro kinase assay. The settings on record: read-out: CCT068127 Mean IC50 (μmol.L^-1) ± SE; mean of three independent repeats. The source says: in vitro kinase assay on CDK1/B (CDK1/cyclin B)

Assay [5] has as its target T5, AURKA (Homo sapiens, UniProt O14965).
T5 construct: recombinant
T5 sequence (O14965 1-403): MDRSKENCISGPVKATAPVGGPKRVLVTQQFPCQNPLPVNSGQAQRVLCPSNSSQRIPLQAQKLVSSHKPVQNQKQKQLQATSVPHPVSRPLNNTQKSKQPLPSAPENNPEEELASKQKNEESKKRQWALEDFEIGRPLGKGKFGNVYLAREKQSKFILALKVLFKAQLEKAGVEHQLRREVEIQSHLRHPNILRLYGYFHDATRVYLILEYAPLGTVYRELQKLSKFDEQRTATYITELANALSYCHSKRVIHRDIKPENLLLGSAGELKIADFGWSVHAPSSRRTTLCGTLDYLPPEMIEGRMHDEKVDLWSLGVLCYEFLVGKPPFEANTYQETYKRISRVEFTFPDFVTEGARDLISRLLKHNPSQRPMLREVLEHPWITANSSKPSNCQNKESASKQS
The assay is described as follows: in vitro kinase assay. An excerpt: in vitro kinase assay on AURKA

For assay [6], the target named is T6, CDK5/p35 (Homo sapiens, UniProt Q00535).
T6 construct: recombinant complex, Invitrogen Select Screen service
The assay is described as follows: Invitrogen Select Screen kinase assay. The settings on record: read-out: CCT068127 Mean IC50 (μmol.L^-1) ± SE; mean of two determinations. The source says: Invitrogen Select Screen kinase assay on CDK5/p35

Assay [7] addresses T7, SAP2KA (Homo sapiens, UniProt Q16539).
T7 construct: gene MAPK14; recombinant; printed SAP2KA, read as SAPK2A
The experiment in a line: in vitro kinase assay. An excerpt:
in vitro kinase assay on SAP2KA

The target of assay [8] is T8, ERK2 (Homo sapiens, UniProt P28482).
T8 construct: gene MAPK1; recombinant
T8 sequence (P28482 2-360): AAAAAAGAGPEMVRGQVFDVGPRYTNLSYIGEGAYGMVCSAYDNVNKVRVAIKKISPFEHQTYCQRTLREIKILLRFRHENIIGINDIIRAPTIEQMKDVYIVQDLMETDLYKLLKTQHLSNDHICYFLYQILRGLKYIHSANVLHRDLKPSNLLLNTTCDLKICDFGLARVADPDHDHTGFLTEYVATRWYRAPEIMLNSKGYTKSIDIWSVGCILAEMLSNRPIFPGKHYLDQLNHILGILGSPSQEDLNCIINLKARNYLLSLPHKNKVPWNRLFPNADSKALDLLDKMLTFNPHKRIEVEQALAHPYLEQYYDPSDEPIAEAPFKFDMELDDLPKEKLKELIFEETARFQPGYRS
The assay is described as follows: in vitro kinase assay. The source says: in vitro kinase assay on ERK2

The target of assay [9] is T9, CDK6/D3 (Homo sapiens, UniProt Q00534).
T9 construct: recombinant human kinase complex; with G1/S-specific cyclin-D3
T9 sequence (Q00534 whole entry): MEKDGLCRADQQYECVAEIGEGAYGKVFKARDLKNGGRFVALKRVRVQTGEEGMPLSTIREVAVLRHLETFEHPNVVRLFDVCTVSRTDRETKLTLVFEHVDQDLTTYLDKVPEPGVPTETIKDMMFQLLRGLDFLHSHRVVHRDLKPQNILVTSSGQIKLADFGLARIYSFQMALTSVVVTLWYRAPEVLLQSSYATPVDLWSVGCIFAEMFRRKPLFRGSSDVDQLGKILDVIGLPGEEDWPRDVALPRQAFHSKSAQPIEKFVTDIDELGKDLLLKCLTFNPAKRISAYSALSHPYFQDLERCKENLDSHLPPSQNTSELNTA
T9 sequence (P30281 whole entry partner): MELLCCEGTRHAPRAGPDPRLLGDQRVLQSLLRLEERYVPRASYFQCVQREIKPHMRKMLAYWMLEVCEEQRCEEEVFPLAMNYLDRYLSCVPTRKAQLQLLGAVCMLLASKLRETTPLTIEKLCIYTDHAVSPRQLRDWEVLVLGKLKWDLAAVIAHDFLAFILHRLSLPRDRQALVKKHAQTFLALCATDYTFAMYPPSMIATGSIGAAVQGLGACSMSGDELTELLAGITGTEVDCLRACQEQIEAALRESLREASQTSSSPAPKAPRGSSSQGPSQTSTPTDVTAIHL
The assay is described as follows: in vitro kinase assay. The settings on record: read-out: CCT068127 Mean IC50 (μmol.L^-1) ± SE; mean of three independent repeats. An excerpt: in vitro kinase assay on CDK6/D3

Assay [10] deals with T10, LCK (Homo sapiens, UniProt P06239).
T10 construct: recombinant
T10 sequence (P06239 2-509): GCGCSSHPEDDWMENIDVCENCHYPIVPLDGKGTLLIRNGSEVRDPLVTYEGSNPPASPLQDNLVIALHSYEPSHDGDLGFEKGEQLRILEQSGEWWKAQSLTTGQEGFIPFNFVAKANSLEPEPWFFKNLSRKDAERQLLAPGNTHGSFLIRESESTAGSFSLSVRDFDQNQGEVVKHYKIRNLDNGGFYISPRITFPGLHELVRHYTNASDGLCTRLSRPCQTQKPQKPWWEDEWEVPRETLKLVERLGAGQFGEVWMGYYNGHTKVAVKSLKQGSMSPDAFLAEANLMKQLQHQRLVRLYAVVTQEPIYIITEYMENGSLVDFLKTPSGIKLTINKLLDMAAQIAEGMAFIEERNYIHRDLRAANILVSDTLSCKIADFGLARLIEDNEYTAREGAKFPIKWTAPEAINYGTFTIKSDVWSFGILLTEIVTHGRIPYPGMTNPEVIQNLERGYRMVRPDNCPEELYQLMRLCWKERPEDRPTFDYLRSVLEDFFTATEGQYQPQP
The experiment in a line: in vitro kinase assay. The source says: in vitro kinase assay on LCK

Assay [11] concerns the target T11, PDGFB (Homo sapiens, UniProt P09619).
T11 construct: gene PDGFRB; recombinant kinase; printed PDGFB, must be the receptor kinase PDGFR beta
The experiment in a line: in vitro kinase assay. The source says:
in vitro kinase assay on PDGFB

Assay [12] deals with T12, PLK1 (Homo sapiens, UniProt P53350).
T12 construct: recombinant
T12 sequence (P53350 2-603): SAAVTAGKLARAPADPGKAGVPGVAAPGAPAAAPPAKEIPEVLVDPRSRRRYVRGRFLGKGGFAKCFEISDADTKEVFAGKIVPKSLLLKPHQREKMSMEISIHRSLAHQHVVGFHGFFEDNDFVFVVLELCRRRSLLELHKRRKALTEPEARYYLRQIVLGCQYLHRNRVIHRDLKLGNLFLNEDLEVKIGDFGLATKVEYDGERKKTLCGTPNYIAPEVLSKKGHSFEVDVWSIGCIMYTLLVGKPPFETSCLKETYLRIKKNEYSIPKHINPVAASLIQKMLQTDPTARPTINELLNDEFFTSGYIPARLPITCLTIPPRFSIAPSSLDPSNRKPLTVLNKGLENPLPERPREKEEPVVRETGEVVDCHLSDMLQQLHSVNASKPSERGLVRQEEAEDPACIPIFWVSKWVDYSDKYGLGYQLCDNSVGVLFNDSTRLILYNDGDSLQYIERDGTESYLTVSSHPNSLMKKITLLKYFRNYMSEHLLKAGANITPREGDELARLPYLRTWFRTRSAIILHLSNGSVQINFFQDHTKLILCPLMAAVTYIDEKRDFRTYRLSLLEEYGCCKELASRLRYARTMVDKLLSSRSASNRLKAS
The experiment in a line: in vitro kinase assay. The source says:
in vitro kinase assay on PLK1

T11 sequence (P09619 33-1106): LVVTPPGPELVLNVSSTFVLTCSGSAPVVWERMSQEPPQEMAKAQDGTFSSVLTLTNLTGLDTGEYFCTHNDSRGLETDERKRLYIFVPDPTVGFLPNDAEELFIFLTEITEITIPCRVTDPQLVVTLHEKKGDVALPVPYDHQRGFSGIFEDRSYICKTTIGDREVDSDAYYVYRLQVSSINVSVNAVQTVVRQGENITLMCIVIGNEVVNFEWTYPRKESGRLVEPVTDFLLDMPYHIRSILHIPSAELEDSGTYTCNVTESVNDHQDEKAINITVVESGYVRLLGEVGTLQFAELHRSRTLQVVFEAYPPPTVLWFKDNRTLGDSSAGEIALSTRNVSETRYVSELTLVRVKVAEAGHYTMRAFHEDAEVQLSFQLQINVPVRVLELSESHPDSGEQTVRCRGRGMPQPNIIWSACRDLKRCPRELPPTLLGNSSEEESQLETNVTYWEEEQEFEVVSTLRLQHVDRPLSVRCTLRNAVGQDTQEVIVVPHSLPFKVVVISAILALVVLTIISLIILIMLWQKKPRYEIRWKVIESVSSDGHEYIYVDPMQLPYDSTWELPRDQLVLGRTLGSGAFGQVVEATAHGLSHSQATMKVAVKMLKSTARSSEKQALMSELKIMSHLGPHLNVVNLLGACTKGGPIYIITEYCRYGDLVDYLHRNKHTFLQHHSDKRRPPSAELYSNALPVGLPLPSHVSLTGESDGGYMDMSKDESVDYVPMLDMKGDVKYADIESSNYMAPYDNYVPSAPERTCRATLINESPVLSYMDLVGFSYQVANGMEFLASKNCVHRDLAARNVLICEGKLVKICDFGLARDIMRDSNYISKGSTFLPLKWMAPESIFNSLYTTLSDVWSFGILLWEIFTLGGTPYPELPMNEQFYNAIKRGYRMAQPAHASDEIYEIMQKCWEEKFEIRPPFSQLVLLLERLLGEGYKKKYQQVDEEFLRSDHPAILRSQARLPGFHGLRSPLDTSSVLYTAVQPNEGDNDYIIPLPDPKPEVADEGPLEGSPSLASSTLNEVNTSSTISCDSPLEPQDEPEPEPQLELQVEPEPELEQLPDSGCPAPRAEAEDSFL
T3 sequence (P00519 whole entry): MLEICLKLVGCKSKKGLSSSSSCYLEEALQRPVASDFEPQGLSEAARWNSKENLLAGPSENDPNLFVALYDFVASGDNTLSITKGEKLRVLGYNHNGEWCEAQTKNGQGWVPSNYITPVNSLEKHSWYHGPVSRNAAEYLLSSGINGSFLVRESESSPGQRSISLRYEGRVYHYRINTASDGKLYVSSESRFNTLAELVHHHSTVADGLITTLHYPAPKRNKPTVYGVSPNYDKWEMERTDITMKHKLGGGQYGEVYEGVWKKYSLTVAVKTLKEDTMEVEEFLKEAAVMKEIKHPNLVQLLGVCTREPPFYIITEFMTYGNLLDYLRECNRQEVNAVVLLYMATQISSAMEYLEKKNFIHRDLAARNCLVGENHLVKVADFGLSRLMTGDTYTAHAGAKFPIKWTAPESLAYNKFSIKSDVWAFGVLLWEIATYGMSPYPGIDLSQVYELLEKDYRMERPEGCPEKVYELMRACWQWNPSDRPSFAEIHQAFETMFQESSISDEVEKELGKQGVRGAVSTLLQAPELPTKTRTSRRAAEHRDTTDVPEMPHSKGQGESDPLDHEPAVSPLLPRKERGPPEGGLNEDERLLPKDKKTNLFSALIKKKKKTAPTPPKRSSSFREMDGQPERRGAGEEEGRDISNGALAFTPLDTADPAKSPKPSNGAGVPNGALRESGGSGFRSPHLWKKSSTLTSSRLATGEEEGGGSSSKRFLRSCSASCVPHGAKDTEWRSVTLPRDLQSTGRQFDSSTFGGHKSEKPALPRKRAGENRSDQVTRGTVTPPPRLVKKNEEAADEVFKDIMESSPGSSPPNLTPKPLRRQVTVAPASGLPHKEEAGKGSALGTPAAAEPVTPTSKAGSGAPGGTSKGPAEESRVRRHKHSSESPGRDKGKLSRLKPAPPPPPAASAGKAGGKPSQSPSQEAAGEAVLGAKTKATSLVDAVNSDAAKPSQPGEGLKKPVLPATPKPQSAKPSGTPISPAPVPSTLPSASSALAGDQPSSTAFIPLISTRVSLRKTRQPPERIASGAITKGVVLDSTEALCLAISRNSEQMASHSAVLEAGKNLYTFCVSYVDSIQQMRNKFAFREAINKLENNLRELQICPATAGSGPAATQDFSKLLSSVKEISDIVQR

As for `CC[C@H](Nc1nc(NCc2cccnc2)c2ncn(C(C)C)c2n1)[C@@H](C)O` [CCT068127], the IC50 was > 10 µM in [1]; > 10 µM in [2]; > 10 µM in assay [3]; 1.1 ± 0.29 µmol/L in assay [4]; > 10 µM in [5]; 0.07 µmol/L in assay [6]. Moreover, the half-inhibitory concentration (IC50) is > 10 µM in [7]; > 10 µM in [8]; 6.2 ± 0.6 µmol/L in [9]; > 10 µM in [10]; > 10 µM in [11]; > 10 µM in [12].
